Measured values published in the CheMixHub viscosity set.

Assay: xn = mol fraction of the nth substance listed

COC(=O)CC(C)=O + CCCCCCC(C)O
viscosity [mPa·s], 101.3 kPa
Settings | x1 = 0.1041 | x1 = 0.2072 | x1 = 0.3091 | x1 = 0.4101 | x1 = 0.5107 | x1 = 0.6079 | x1 = 0.7081 | x1 = 0.807 | x1 = 0.9036
298.15 K | 4.231 | 3.315 | 2.753 | 2.358 | 2.075 | 1.9 | 1.699 | 1.574 | 1.52
303.15 K | 3.511 | 2.796 | 2.344 | 2.026 | 1.796 | 1.661 | 1.506 | 1.413 | 1.374
308.15 K | 2.939 | 2.377 | 2.015 | 1.756 | 1.567 | 1.476 | 1.352 | 1.279 | 1.251

CCCCCCCCCCCCCCCCCCCl + CCCCCCCCCC
298 K, 101.3 kPa
Settings | viscosity [mPa·s]
x2 = 0.1067 | 6.162
x2 = 0.2123 | 5.192
x2 = 0.3131 | 4.379
x2 = 0.3996 | 3.651
x2 = 0.508 | 2.885
x2 = 0.6105 | 2.385
x2 = 0.7027 | 1.919
x2 = 0.8012 | 1.487
x2 = 0.8979 | 1.145

CCCCCCCCCCCC(=O)OC + CCCCCCCCCC(=O)OCC
viscosity [mPa·s], 100 kPa
Settings | 298.15 K | 308.15 K | 318.15 K
x2 = 0.04836 | 2.784 | 2.203 | 1.856
x2 = 0.1051 | 2.725 | 2.165 | 1.824
x2 = 0.1954 | 2.649 | 2.106 | 1.778
x2 = 0.3128 | 2.556 | 2.041 | 1.723
x2 = 0.4082 | 2.482 | 1.988 | 1.677
x2 = 0.5008 | 2.417 | 1.945 | 1.639
x2 = 0.5987 | 2.348 | 1.897 | 1.601
x2 = 0.6571 | 2.307 | 1.87 | 1.582
x2 = 0.7044 | 2.274 | 1.849 | 1.567
x2 = 0.8 | 2.211 | 1.806 | 1.533
x2 = 0.8986 | 2.147 | 1.763 | 1.497

CCCCCCCCCCCC(=O)OC + CCCCCCCCCCCC
viscosity [mPa·s], 100 kPa
Settings | x2 = 0.0991 | x2 = 0.2004 | x2 = 0.3006 | x2 = 0.3991 | x2 = 0.5003 | x2 = 0.6 | x2 = 0.6997 | x2 = 0.8005 | x2 = 0.8995
293.15 K | 2.863 | 2.631 | 2.435 | 2.242 | 2.09 | 1.931 | 1.789 | 1.671 | 1.564
298.15 K | 2.554 | 2.356 | 2.185 | 2.009 | 1.883 | 1.749 | 1.624 | 1.514 | 1.425
303.15 K | 2.296 | 2.126 | 1.975 | 1.83 | 1.71 | 1.595 | 1.485 | 1.391 | 1.308
308.15 K | 2.081 | 1.93 | 1.797 | 1.671 | 1.563 | 1.461 | 1.363 | 1.28 | 1.205
313.15 K | 1.896 | 1.763 | 1.644 | 1.526 | 1.436 | 1.344 | 1.257 | 1.183 | 1.116
318.15 K | 1.735 | 1.616 | 1.511 | 1.402 | 1.318 | 1.243 | 1.164 | 1.098 | 1.037
323.15 K | 1.594 | 1.489 | 1.395 | 1.299 | 1.223 | 1.153 | 1.082 | 1.022 | 0.967

CCCCCCCCCCCCCCCCCCCl + CCCCCCCCCCCC
298 K, 101.3 kPa
Settings | viscosity [mPa·s]
x2 = 0.1097 | 6.289
x2 = 0.2096 | 5.429
x2 = 0.3134 | 4.684
x2 = 0.4067 | 4
x2 = 0.5044 | 3.481
x2 = 0.6047 | 2.887
x2 = 0.6853 | 2.488
x2 = 0.805 | 2.012
x2 = 0.8971 | 1.662

CCOc1ccccc1 + CCCCCCCCCCO
viscosity [mPa·s], 101.3 kPa
Settings | x1 = 0.0999 | x1 = 0.2011 | x1 = 0.2996 | x1 = 0.4003 | x1 = 0.5011 | x1 = 0.6025 | x1 = 0.6998 | x1 = 0.8007 | x1 = 0.9012
293.15 K | 11.33 | 8.76 | 6.789 | 5.22 | 4.017 | 3.116 | 2.486 | 2.001 | 1.637
298.15 K | 9.33 | 7.335 | 5.786 | 4.5 | 3.502 | 2.729 | 2.188 | 1.79 | 1.501
308.15 K | 6.907 | 5.541 | 4.402 | 3.45 | 2.705 | 2.149 | 1.724 | 1.397 | 1.144
318.15 K | 4.863 | 3.962 | 3.226 | 2.613 | 2.125 | 1.726 | 1.414 | 1.147 | 0.9405

CCOc1ccccc1 + CCCCCCCCCO
viscosity [mPa·s], 101.3 kPa
Settings | x1 = 0.1012 | x1 = 0.2001 | x1 = 0.3006 | x1 = 0.4009 | x1 = 0.5013 | x1 = 0.6023 | x1 = 0.7018 | x1 = 0.8005 | x1 = 0.8997
293.15 K | 8.86 | 6.725 | 5.095 | 3.858 | 2.948 | 2.293 | 1.853 | 1.578 | 1.424
298.15 K | 7.33 | 5.611 | 4.298 | 3.299 | 2.57 | 2.039 | 1.692 | 1.488 | 1.361
308.15 K | 5.241 | 4.17 | 3.295 | 2.614 | 2.089 | 1.697 | 1.394 | 1.17 | 1.023
318.15 K | 3.906 | 3.16 | 2.525 | 2.033 | 1.654 | 1.371 | 1.152 | 0.9714 | 0.8556

CCOc1ccccc1 + CCCCCCCCO
viscosity [mPa·s], 101.3 kPa
Settings | x1 = 0.1001 | x1 = 0.1976 | x1 = 0.2997 | x1 = 0.4014 | x1 = 0.4996 | x1 = 0.6027 | x1 = 0.7022 | x1 = 0.8015 | x1 = 0.9016
293.15 K | 6.96 | 5.353 | 4.171 | 3.317 | 2.691 | 2.194 | 1.86 | 1.63 | 1.491
298.15 K | 5.929 | 4.669 | 3.644 | 2.894 | 2.361 | 1.947 | 1.68 | 1.502 | 1.36
308.15 K | 4.308 | 3.441 | 2.698 | 2.152 | 1.742 | 1.436 | 1.234 | 1.111 | 1.042
318.15 K | 3.31 | 2.701 | 2.153 | 1.7 | 1.386 | 1.143 | 0.9913 | 0.9148 | 0.8795
